In patent publication US20240156779A1, “SMALL MOLECULE ALLOSTERIC MODULATORS OF CLASS B GPCR, THE PTHR, AND METHOD TO IDENTIFY THEM” (University of Pittsburgh - Of the Commonwealth System of …, priority 2021, published 2024):
Substitutions are numbered along the chain they refer to. Entries after “also recorded” stand apart in the source; their conditions may differ.

Experiments:
PTHR [1] = target: T1, PTHR (Homo sapiens, UniProt Q03431); settings: cited from earlier work
T1 sequence (Q03431 27-593): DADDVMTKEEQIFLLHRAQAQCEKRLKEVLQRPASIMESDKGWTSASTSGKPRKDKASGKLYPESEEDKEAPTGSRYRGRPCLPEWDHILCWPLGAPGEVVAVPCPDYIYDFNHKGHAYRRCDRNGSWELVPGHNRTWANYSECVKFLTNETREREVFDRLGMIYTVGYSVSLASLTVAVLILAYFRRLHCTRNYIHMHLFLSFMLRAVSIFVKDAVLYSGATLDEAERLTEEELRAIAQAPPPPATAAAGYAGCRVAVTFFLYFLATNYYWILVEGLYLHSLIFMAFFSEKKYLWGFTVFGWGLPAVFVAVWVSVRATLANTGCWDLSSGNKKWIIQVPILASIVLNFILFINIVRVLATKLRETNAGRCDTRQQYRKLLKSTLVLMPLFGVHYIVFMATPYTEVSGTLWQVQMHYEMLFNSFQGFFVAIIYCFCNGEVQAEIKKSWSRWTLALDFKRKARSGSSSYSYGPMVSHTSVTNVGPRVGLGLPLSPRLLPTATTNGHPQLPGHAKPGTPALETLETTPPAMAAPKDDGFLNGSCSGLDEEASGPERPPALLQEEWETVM

[2] = target: T2, PTHR association with G proteins (mGs, mGq) (Homo sapiens, UniProt Q03431); assay: FRET time courses of PTHR-CFP interaction with mini-Gs and mini-Gq; type: cell-based; settings: PTH-induced
T2 construct: expressed in transfected cells
T2 sequence (Q03431 27-593): T1 sequence (Q03431 27-593)
T2 sequence (P01270 32-65 partner limits assumed): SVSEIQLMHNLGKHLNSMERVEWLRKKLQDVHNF

[3] = target: T3, human PTH type 1 receptor (hPTHR) (Homo sapiens, UniProt Q03431); assay: Concentration-response curves for cAMP (GloSensor) by PTH with Pitt molecules; type: cell-based; settings: range of Pitt concentrations
T3 construct: expressed in transfected cells
T3 sequence (Q03431 27-593): T1 sequence (Q03431 27-593)

[4] = target: b2-adrenergic receptor (b2AR) (Homo sapiens, UniProt P07550); assay: cAMP production mediated by b2AR agonist isoproterenol; type: cell-based; settings: in response to isoproterenol
[5] = target: vasopressin type 2 receptor (V2R) (Homo sapiens, UniProt P30518); assay: vasopressin-mediated cAMP production; type: cell-based
recombinant PTHR = assay: Intracellular Ca2+ release (Fluo-4) in response to PTH; type: cell-based; settings: 100 nM PTH, 10 μM Pitt molecules
human PTHR mutant R181A = target: T4, human PTHR mutant R181A (Homo sapiens, UniProt Q03431, R181A); assay: PTH-induced cAMP signaling of receptor mutant R181A; type: cell-based
T4 construct: HA
T4 sequence (Q03431 27-593 R181A): T1 sequence (Q03431 27-593) with R155A

PTHR [6] = target: T1, PTHR; assay: PTH-induced cAMP time courses (FRET sensor) in HEK293 cells stably expressing PTHR; type: cell-based; parameters: expressed in transfected cells; settings: for inhibition of PTH-mediated cAMP production compared with Pitt12: 10 μM compound
human PTHR mutant E180A = target: T5, human PTHR mutant E180A (Homo sapiens, UniProt Q03431, E180A); assay: PTH-induced cAMP signaling of receptor mutant E180A; type: cell-based
T5 construct: HA
T5 sequence (Q03431 27-593 E180A): T1 sequence (Q03431 27-593) with E154A

PTHR [7] = target: T1, PTHR; assay: Radioligand receptor binding, membranes of GP-2.3 cells; parameters: expressed in transfected cells; host or cells: HEK-293-derived GP-2.3 cells (membranes)
[8] = 20 μmol/kg, 3 h after injection

b2-adrenergic receptor (b2AR), sequence (P07550 whole entry, species assumed): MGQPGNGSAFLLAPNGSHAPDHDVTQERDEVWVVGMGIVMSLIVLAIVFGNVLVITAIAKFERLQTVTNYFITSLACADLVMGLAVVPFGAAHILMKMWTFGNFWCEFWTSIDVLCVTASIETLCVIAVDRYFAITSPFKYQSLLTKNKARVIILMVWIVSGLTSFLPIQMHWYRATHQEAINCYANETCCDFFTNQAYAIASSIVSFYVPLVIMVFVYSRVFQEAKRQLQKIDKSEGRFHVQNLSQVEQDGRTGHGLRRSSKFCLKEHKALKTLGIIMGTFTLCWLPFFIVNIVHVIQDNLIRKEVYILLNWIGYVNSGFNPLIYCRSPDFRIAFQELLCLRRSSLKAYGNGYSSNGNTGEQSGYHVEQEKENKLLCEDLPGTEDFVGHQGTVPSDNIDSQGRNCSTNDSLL
vasopressin type 2 receptor (V2R), sequence (P30518 whole entry, species assumed): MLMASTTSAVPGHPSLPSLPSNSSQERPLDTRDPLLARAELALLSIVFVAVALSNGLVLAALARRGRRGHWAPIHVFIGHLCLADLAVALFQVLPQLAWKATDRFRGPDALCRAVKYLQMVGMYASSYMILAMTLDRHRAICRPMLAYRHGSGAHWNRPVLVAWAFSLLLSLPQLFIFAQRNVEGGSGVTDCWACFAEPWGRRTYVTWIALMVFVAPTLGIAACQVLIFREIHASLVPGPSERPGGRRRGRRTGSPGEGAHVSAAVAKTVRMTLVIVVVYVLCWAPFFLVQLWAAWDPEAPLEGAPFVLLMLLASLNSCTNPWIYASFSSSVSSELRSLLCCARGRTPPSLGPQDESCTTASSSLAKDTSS

For `CCCCn1c(O)c(C(=N)N)c(=O)n(CCCC)c1=O` [AH-3960], the “mode of action at PTHR” value (PTHR [1]) is listed as “weak agonist”.
In the case of `Cc1cc(N2C(=O)NC(=O)C2(C)C)cc(C)c1CCS(=O)(=O)N1CCC2(CC1)N=C(c1ccc(OC(F)(F)F)cc1)NC2=O` [PCO371], the “mode of action at PTHR” value (PTHR [1]) is given as “orthosteric agonist”.
In the case of `COc1ccc([C@@H]2CN(C(=O)OCC3c4ccccc4-c4ccccc43)C[C@H]2C(=O)O)cc1` [Pitt12], the “serum Ca2+ (sCa2+) level, compound alone” value (C57BL/6 mice; [8]) is reported as “significantly reduced”, the “serum phosphate (sPi) level, compound alone” value (C57BL/6 mice; [8]) is reported as “trend of reducing” and the “BUN/creatine ratio (kidney function and hydration status)” value (C57BL/6 mice; mouse, in vivo) is reported as “lack of significant changes”. For the same compound, the “G proteins association with the receptor” value [2] was “decrease in both the kinetics and magnitude”, the “effect on efficacy (Emax) of PTH to mediate cAMP increase” value [3] was “blocked cAMP production by PTH; also recorded: marked reduction in efficacy” and the “effect on β2AR-mediated cAMP production” value [4] was “no effect”. The “effect on vasopressin-mediated cAMP” value [5] was “lack of effect”, the “PTH-mediated release of stored intracellular Ca2+” value (recombinant PTHR) was “noticeable reduction” and the “sensitivity of R181A mutant to modulation of PTH-induced cAMP” value (human PTHR mutant R181A) was “lost their ability to respond to negative modulation”. The “alteration of plasma membrane cAMP” value (PTHR [6]; 1 nM PTH) was “≈ 30%”, the “reduction of endosomal cAMP production” value (PTHR [6]; 1 nM PTH) was “≈ 70%” and the “effect on PTH-induced cAMP production (AUC of time course)” value (PTHR [6]; 1 nM PTH co-applied with 10 μM compound, HEK293-PTHR) was “distinguishably high potential to elicit negative effects”. The “sustained cAMP response on blockade of receptor internalization” value (PTHR [6]; cells expressing DynK44A, PTH with Pitt coapplied) was “moderately affected”, the “sensitivity of E180A mutant to modulation of PTH-induced cAMP” value (human PTHR mutant E180A) was “lost their ability to respond to negative modulation” and the “inhibitory binding constant (Ki), RG state” value (PTHR [7]; G-protein coupled (RG) state) was “in the μM range”. For the same compound, the “inhibitory binding constant (Ki), R0 state” value (PTHR [7]; G-protein uncoupled (R0) state, with GTPgS) was “in the μM range”.
In the case of `O=C(O)[C@@H]1CN(C(=O)OCC2c3ccccc3-c3ccccc32)C[C@H]1c1ccccc1` [Pitt41], the “inhibition of PTH-mediated cAMP production compared with Pitt12” value (PTHR [6]; HEK293-PTHR) is reported as “more efficacious than Pitt12”.
With `Cc1ccc([C@@H]2CN(C(=O)OCC3c4ccccc4-c4ccccc43)C[C@H]2C(=O)O)cc1` [Pitt42] the “inhibition of PTH-mediated cAMP production compared with Pitt12” value (PTHR [6]; HEK293-PTHR) was “more efficacious than Pitt12”.
